system: E. multilocularis metacestodes; experiment: PGI assay: phosphoglucose isomerase release from damaged metacestodes; type: cell-based, Echinococcus multilocularis; settings: 10 μM, 5 days, single wells, relative to DB1127 (10 μM)
In short: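 E. multilocularis metacestode vesicles (strain H95, grown in BALB/c mice, 2–4 mm diameter) were exposed in vitro to compounds for 5 days. Damage was read as phosphoglucose isomerase released into the medium. Initial screening used 10 μM in single wells, with 0.1% DMSO as negative control. EC50 values were derived from this read-out.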

SMILES	PGI (% of DB1127 at 10 uM) [%]
COc1ccc(-c2nonc2NC(=O)c2cccc(Cl)c2)cc1OC [MMV020660]	-20.61
CC(=O)Nc1nnc(SCc2c(C)cc(C(C)(C)C)cc2C)s1 [MMV020700]	1.07
COc1cc(-c2nc(-c3ccccc3)c(-c3ccccc3)[nH]2)cc(OC)c1O [MMV020750]	7.02
Cl.Oc1ccccc1CNCC12CC3CC(CC(C3)C1)C2 [MMV020788]	-57.58
COc1ccc(Br)cc1C1Nc2ccc3ccccc3c2C2=C1C(=O)CC(c1ccccc1)C2 (centres unmarked) [MMV020885]	-45.01
Cc1ccc(-c2nc3ccccc3o2)cc1NCc1cc(Cc2ccccc2)ccc1O [MMV020912]	-2.94
CCC(=O)Nc1nnc(Cc2ccc(OC)c(OC)c2)s1 [MMV020942]	-6.11
COc1cc(SC)ccc1C(=O)N1CCCC(C)C1 (centres unmarked) [MMV056726]	16.15
CN(C)c1ccc(N=Cc2ccc(N3CCOCC3)cc2)cc1 [MMV073843]	-14.14
CCOc1ccc(C2N(C)c3ccccc3N2C)cc1 [MMV075490]	26.52
Nc1nc(Nc2cccc(F)c2)nc2ccccc12 [MMV080034]	-19.84
COc1ccc(C=C2SC(Nc3ccc(F)cc3)=NC2=O)c(OC)c1 [MMV084434]	7.76
COc1cc2c(cc1OC)C1=NNC(=O)C1=NC(C)(C)C2 [MMV084940]	-19.88
COc1ccccc1NC1=C(N2CCCCC2)C(=O)c2ccccc2C1=O [MMV085203]	31.65
CCOc1ccc(-n2cc(-c3ccccc3)c3c(SCc4cc(C)ccc4C)ncnc32)cc1 [MMV085471]	-19.26
Cc1ccc(C(=O)c2oc3ccc4c(C)cc(=O)oc4c3c2C)cc1 [MMV086103]	-6.30
COc1cc(CNCCc2ccc(Cl)cc2)cc(OC)c1O [MMV128432]	-10.12
CC(C)(C)c1ccc(C(=O)Nc2nc3ccccc3s2)cc1 [MMV142383]	-17.15
COc1ccc2nc(C)cc(Nc3ccccc3O)c2c1 [MMV274073]	-1.78
CCn1nc(-c2ccc(C(=O)OC)cc2)nc2c(=O)n(C)c(=O)nc1-2 [MMV306025]	-10.99
COc1ccc(-c2nc(N3CCN(C(=O)C4CCCCC4)CC3)c3c4c(sc3n2)CCCC4)cc1 [MMV396594]	-22.30

SMILES	PGI (% of DB1127 at 10 uM) [%]
CCOc1c(Cl)cc(CNCC(O)c2ccccc2)cc1OC (centres unmarked) [MMV396632]	5.30
CCOc1cc(CNC(C)C(O)c2ccccc2)cc(Cl)c1OCC (centres unmarked) [MMV396633]	30.39
O=C(NC1CCN(Cc2ccccc2)CC1)c1cc2nc(-c3ccc(Cl)s3)cc(C(F)(F)F)n2n1 [MMV396635]	-11.44
Cc1sc(NC(=O)c2ccccc2)c(C(c2cccs2)N2CCN(c3ccccc3)CC2)c1C (centres unmarked) [MMV396652]	-26.88
Cc1sc(NC(=O)c2ccco2)c(C(c2cccnc2)N2CCC(Cc3ccccc3)CC2)c1C (centres unmarked) [MMV396663]	-1.97
CCOC(=O)c1c(C)n(-c2ccccc2)c2ccc(OC(=O)c3cc(OC)c(OC)c(OC)c3)cc12 [MMV396664]	-2.70
COc1cc(C(=O)Nc2nc3c(cc4c5c(cccc53)CC4)s2)cc(OC)c1OC [MMV396665]	-11.85
Cc1cc(N2CCCC2)nc(Nc2ccc(NC(=O)CCc3ccccc3)cc2)n1 [MMV396669]	-21.92
O=C(NCC(c1ccsc1)N1CCCCCC1)c1ccc(C(F)(F)F)cc1 (centres unmarked) [MMV396672]	-34.18
COc1ccc(-c2cc3c(SCC(=O)Nc4cc(C(F)(F)F)ccc4Cl)nccn3n2)cc1 [MMV396679]	-59.06
Cc1ccc(-c2cc3c(SCC(=O)Nc4cc(C(F)(F)F)ccc4Cl)nccn3n2)cc1 [MMV396680]	-41.44
Cc1cc(NC(=O)c2cccc(C(F)(F)F)c2)n(-c2nc(-c3ccc4c(c3)OCO4)cs2)n1 [MMV396681]	-33.55
C[n+]1c2ccccc2nc2ccc(NCCO)cc21 [MMV396693]	-18.69
CCN(CC)CCNc1ncnc2c1[nH]c1ccc(Cl)cc12 [MMV396703]	-47.33
CN1CCN(c2ncnc3c2[nH]c2ccc(Cl)cc23)CC1 [MMV396704]	-24.85
COc1cccc(Cn2c(Oc3ccccc3)nc3c2c(=O)n(C)c(=O)n3C)c1 [MMV396705]	-23.91
CC1(c2ccccc2)Nc2ccccc2-c2nc3ccccc3n21 (centres unmarked) [MMV396715]	-22.40
COc1ccc(CCN2C(=O)c3[nH]nc(-c4cc(Cl)c(C)cc4O)c3C2c2ccccc2F)cc1 (centres unmarked) [MMV396717]	-12.02
COc1cccc(C2(C)Nc3ccccc3-c3nc4ccccc4n32)c1 (centres unmarked) [MMV396719]	6.50
N=c1n(CCN2CCCCC2)c2ccccc2n1CC(=O)c1ccc(Cl)c(Cl)c1 [MMV396723]	22.11
N#Cc1nc(Cc2cccc3ccccc23)oc1N1CCN(C(c2ccccc2)c2ccccc2)CC1 [MMV396726]	-6.81

SMILES	PGI (% of DB1127 at 10 uM) [%]
OC(CNCC1CCCO1)Cn1c2ccc(Cl)cc2c2cc(Cl)ccc21 (centres unmarked) [MMV396736]	50.77
CC(C)CNC(=O)c1c(N)n(CCc2ccccc2F)c2nc3ccccc3nc12 [MMV396744]	-10.23
COc1ccc2c(c1)C1(Nc3ccccc3-c3nc4ccccc4n31)C(=O)N2 (centres unmarked) [MMV396749]	0.0365
O=C(NNc1cc(N2CCCC2)nc(N2CCCC2)n1)c1ccccc1 [MMV396770]	-1.95
CC(C)(C)CC(C)(C)NCC(O)COc1ccc(Cl)cc1Cl (centres unmarked) [MMV396794]	97.35
COc1ccc(-c2c(C)nn3c(N)c(C#N)cnc23)cc1OC [MMV396797]	-51.42
Cc1cccc(-n2ncc3c(O)nc(-n4nc(C)cc4NC(=O)c4cc5ccccc5o4)nc32)c1 [MMV403679]	-25.18
CCOC(=O)c1c[nH]c2c(CC)cccc2c1=O [MMV498479]	-7.93
C=CC12CCN(CC1)C(C(O)c1ccnc3ccc(OC)cc13)C2.Cl (centres unmarked) [MMV665782]	-43.49
CCN(CC)CCCNc1ccnc2cc3ccccc3cc12 [MMV665783]	-52.95
CC(C)(C)c1ccc(O)c(CNC2CCCCC2)c1 [MMV665785]	1.27
O=c1cc(NC2CCN(CCCc3ccccc3)CC2)c2cc(Cl)ccc2o1 [MMV665786]	-0.88
CC(NCc1ccccc1)c1cc(Cl)ccc1O (centres unmarked) [MMV665789]	-38.95
CCOc1cc(Br)c(C(C)NC(=O)c2cccc(OC)c2)cc1OCC (centres unmarked) [MMV665796]	-1.06
CCCCOC(=O)c1ccc(Nc2cc(C)nc3ccc(OC)cc23)cc1 [MMV665797]	0.71
FC(F)(F)c1cccc(Nc2nc(-c3ccccc3)nc3ncccc23)c1 [MMV665798]	30.38
COc1ccc(C(=O)Nc2ccc(Cl)cc2C(=O)Nc2ccncc2)cc1 [MMV665799]	5.52
CCOc1cc(Cl)c(C(C)NC(=O)c2ccccc2)cc1OCC (centres unmarked) [MMV665800]	-123.29
CCOc1cc(Cl)c(C(C)NC(=O)c2cccc(OC)c2)cc1OCC (centres unmarked) [MMV665803]	-50.18
CCOc1ccc(-c2nonc2NC(=O)c2cccc(C)c2)cc1OCC [MMV665805]	-25.24
Cc1c(C)n(CC(O)CNC2CCCCC2C)c2ccccc12 (centres unmarked) [MMV665806]	5.77

SMILES	PGI (% of DB1127 at 10 uM) [%]
Oc1ccc(Br)cc1CN1CCN(Cc2ccc(Cl)cc2)CC1 [MMV665809]	-23.13
CCc1ccc(CNCC(O)c2ccccc2)cc1.Cl (centres unmarked) [MMV665812]	-2.45
CCOC(=O)c1cnc2ccc(OC)cc2c1NCc1ccccc1 [MMV665813]	-12.77
Oc1c(C(Nc2ccccn2)c2cccc(Oc3ccccc3)c2)ccc2cccnc12 (centres unmarked) [MMV665814]	-6.04
CC(C)(C)CC(C)(C)NCC(O)COc1ccc2c(c1)CCC2.Cl (centres unmarked) [MMV665817]	-44.11
COc1ccc2c(=O)cc(C(Cl)(Cl)Cl)oc2c1 [MMV665820]	-22.08
Cn1c(C(=O)c2cccc3ccccc23)nc2ccccc21 [MMV665824]	-1.12
COc1cccc(NC(=O)Cn2c(C)c(C#N)c3ccccc32)c1 [MMV665826]	-17.93
CCOC(=O)c1cn(CC)c2cc(N3CCCCC3)c(F)cc2c1=O [MMV665827]	-20.29
CC1CC2=C(CC1CNCCCN(C)C)C(C)(C)CCC2 (centres unmarked) [MMV665830]	-3.36
CCOC(=O)c1c(NC(=O)c2ccccc2)sc2c(O)c(CN(CC)CC)ccc12 [MMV665831]	-16.80
COc1ccc(/C=C2/SC(=Nc3ccccc3)NC2=O)cc1 [MMV665836]	-11.27
O=C(Nc1ccc(-c2nc3ccccc3[nH]2)cc1)c1ccc(Cl)c(Cl)c1 [MMV665840]	-1.75
CCCc1cc(O)c2c3c(c(=O)oc2c1)CN(C)CC3 [MMV665841]	-34.14
O=c1c2c([nH]c3ccccc13)CCCC2 [MMV665843]	-19.31
Oc1ccc(Cl)cc1CNc1nc2ccccc2[nH]1 [MMV665850]	-85.60
CCOc1c(Cl)cc(CNC(C)C(O)c2ccccc2)cc1OC (centres unmarked) [MMV665857]	-30.92
CCCCNc1nc(NC(C)(C)C)nc(NC(C)(C)C)n1 [MMV665864]	-36.23
Cc1cc(Nc2ccc(C)c(Cl)c2)n2nc(C(F)(F)F)nc2n1 [MMV665874]	-25.13
Cl.Cn1c(=O)n(C)c2cc(CNCCNc3ccnc4cc(Cl)ccc34)ccc21 [MMV665875]	7.55

From PMC4788259 (PLoS Neglected Tropical Diseases, 2016)
